Drawing on the supplement of paper PMC10307832, this text covers relative viability for one cell line.

Holding throughout (experiment): relative viability (nuclei count vs DMSO), 5 days (fraction); higher = more cells survive
Compound in experiment [1]: CC1CC(=O)N(C2=CN=C(N=C2N1C3CCCC3)NC4=C(C=C(C=C4)C(=O)NC5CCN(CC5)C)OC)C [NPK76-II-72-1] + Nc1ncn([C@H]2C[C@H](O)[C@@H](CO)O2)c(=O)n1 [Decitabine] (partner 2 µM)
The gist of the method: (§1)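 A single step with final 0.05% Triton X-100, 1% formaldehyde and 1 ug/ml Hoechst fixed the cells and stained nuclei 5 days after treatment. Lung cancer cell lines in 1536-well plates had been treated by pin tool the day after seeding with one drug alone or a fixed anchor-drug dose plus five library-drug doses (not always all listed) in √10 steps, and nuclei were counted on 4× images. Relative viability is the ratio of nuclei in treated wells to nuclei in vehicle wells, taken as the median of duplicate plates.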

Compound in experiment [2]: CC1CC(=O)N(C2=CN=C(N=C2N1C3CCCC3)NC4=C(C=C(C=C4)C(=O)NC5CCN(CC5)C)OC)C [NPK76-II-72-1] + CC(=O)Nc1cccc(-n2c(=O)n(C3CC3)c(=O)c3c(Nc4ccc(I)cc4F)n(C)c(=O)c(C)c32)c1 [Trametinib] (partner 0.02 µM)
A digest of the protocol:
as §1

Compound in the experiment “BI-2536 + Alpelisib”: CC[C@@H]1C(=O)N(C)c2cnc(Nc3ccc(C(=O)NC4CCN(C)CC4)cc3OC)nc2N1C1CCCC1 [BI-2536] + Cc1nc(NC(=O)N2CCC[C@H]2C(N)=O)sc1-c1ccnc(C(C)(C)C(F)(F)F)c1 [Alpelisib] (partner 2 µM)
The gist of the method:
as §1

Compound in the experiment “BI-2536 + Crizotinib”: CC[C@@H]1C(=O)N(C)c2cnc(Nc3ccc(C(=O)NC4CCN(C)CC4)cc3OC)nc2N1C1CCCC1 [BI-2536] + C[C@@H](Oc1cc(-c2cnn(C3CCNCC3)c2)cnc1N)c1c(Cl)ccc(F)c1Cl [Crizotinib] (partner 1 µM)
The gist of the method: as §1

UMC-11: the relative viability was 0.617 in experiment [1] (first compound 0.01 µM); 0.57 in experiment [1] (first compound 0.03162 µM); 0.683 in experiment [1] (first compound 0.1 µM); 0.505 in experiment [1] (first compound 0.3162 µM); 0.736 in experiment [1] (first compound 1 µM); 0.692 in experiment [2] (first compound 0.01 µM). The relative viability worked out at 0.629 in experiment [2] (first compound 0.03162 µM); 0.75 in experiment [2] (first compound 0.1 µM); 0.484 in experiment [2] (first compound 0.3162 µM); 0.812 in experiment [2] (first compound 1 µM); 0.978 with BI-2536 + Alpelisib (first compound 0.01 µM); 0.733 with BI-2536 + Alpelisib (first compound 0.03162 µM). Besides, the relative viability in the experiment with BI-2536 + Alpelisib (first compound 0.1 µM) was determined as 0.312; in the experiment with BI-2536 + Alpelisib (first compound 0.3162 µM) it was 0.152; in the experiment with BI-2536 + Alpelisib (first compound 1 µM), 0.126; with BI-2536 + Crizotinib (first compound 0.01 µM), 0.48; in the experiment with BI-2536 + Crizotinib (first compound 0.03162 µM) it was 0.237; in the experiment with BI-2536 + Crizotinib (first compound 0.1 µM) it was 0.148. Also, the relative viability was found to be 0.133 with BI-2536 + Crizotinib (first compound 0.3162 µM) and 0.1 in the experiment with BI-2536 + Crizotinib (first compound 1 µM).
